Patent publication US20250353861A1, “DERIVATIVE OF ARTEMISININ AND PREPARATION METHOD AND USE THEREOF” (SHANGHAI INNOFORTUNE BIOTECH CO. LTD., priority 2022, published 2025)

Key:
[1] = test system: corneal neovascularization in New Zealand rabbits with alkali burn; experiment: Effects on corneal neovascularization in New Zealand rabbits with alkali burn; format: in vivo; settings: 1% eye drops 3 times a day; for Formation of new blood vessels in the cornea (slit-lamp photographs, FIG. 2), comparison of groups: preliminary conclusion from the figures; for Number of New Zealand rabbit eyes with appearance of fluorescein-stained spots / Number of New Zealand rabbit eyes with conjunctival congestion / Number of New Zealand rabbit eyes with corneal edema / Number of New Zealand rabbit eyes with neovascularization: 2 drops, 12 eyes per group (10 for SZY1905-P32)
Description: Twenty-four New Zealand rabbits were first given intravenous anesthesia with a chloralhydrate solution at a dose of about 0.5 mL/kg, followed by ocular surface anesthesia with 0.5% tetracaine hydrochloride eye drops. A piece of filter paper with a diameter of about 8 mm was immersed in 1 mol/L NaOH solution for 1 minute to reach saturation. The saturated filter paper was placed in the center of the cornea for 1 minute and then removed, immediately followed by repeatedly rinsing the cornea and the conjunctival sac with 0.9% sodium chloride injection for 1 minute. After that, tobramycin dexamethasone sodium phosphate eye drops were administered. After modeling, the twenty-four animals were divided into four groups, which were: Model group; SZY1905-P30 eye drops-administered group; […] The eye drops were administered 3 times a day, 2 drops each time. The Model group was not administered with any drugs. […] The cornea was then stained with fluorescein sodium, and observed under the slit-lamp microscope and photographed.

[2] = Testing of stability at different pH values (HPLC); format: physicochemical
Description: 10 mg of the sample was weighed and 10 mL of an aqueous solution at a different pH value was added, followed by ultrasonic dissolving and filtration. HPLC testing was then performed.

[3] = Testing of solubility at different pH values
Description: First, a series of solutions with pH-5-8 were prepared using phosphoric acid and NaOH.

[4] = 1st day of the modeling (0 day of administration)
[5] = 7th day of the modeling (6th day of administration)
[6] = 14th day of the modeling (13th day of administration)

C[C@H]1[C@H](OCCCN)O[C@@H]2O[C@@]3(C)CC[C@H]4[C@H](C)CC[C@@H]1C24OO3 [SZY1905-P32, reference compound]
Formation of new blood vessels in the cornea (slit-lamp photographs, FIG. 2), comparison of groups [1]: new vessels have spread to the entire cornea
Number of New Zealand rabbit eyes with appearance of fluorescein-stained spots [1, 4]: 10
Number of New Zealand rabbit eyes with conjunctival congestion [1, 4]: 1
Number of New Zealand rabbit eyes with corneal edema [1, 4]: 8
Number of New Zealand rabbit eyes with neovascularization [1, 4]: 0
Number of New Zealand rabbit eyes with appearance of fluorescein-stained spots [1, 5]: 9
Number of New Zealand rabbit eyes with conjunctival congestion [1, 5]: 0
Number of New Zealand rabbit eyes with corneal edema [1, 5]: 4
Number of New Zealand rabbit eyes with neovascularization [1, 5]: 6
Number of New Zealand rabbit eyes with appearance of fluorescein-stained spots [1, 6]: 8
Number of New Zealand rabbit eyes with conjunctival congestion [1, 6]: 0
Number of New Zealand rabbit eyes with corneal edema [1, 6]: 3
Number of New Zealand rabbit eyes with neovascularization [1, 6]: 7

C[C@H]1[C@H](OCCCC[N+](C)(C)C)O[C@@H]2O[C@@]3(C)CC[C@H]4[C@H](C)CC[C@@H]1C24OO3.[I-] [SZY1905-P31, artemisinin quaternary ammonium butyl ether iodate]
Stability, 0 day (%) ([2]; Purified water, 10 mg in 10 mL): 98.05%
Stability, 8th day (%) ([2]; Purified water, 10 mg in 10 mL): 97.68%
Stability, 20th day (%) ([2]; Purified water, 10 mg in 10 mL): 97.35%
Stability, 30th day (%) ([2]; Purified water, 10 mg in 10 mL): 97.46%
Stability, 0 day (%) ([2]; pH = 5.0, 10 mg in 10 mL): 98.11%
Stability, 8th day (%) ([2]; pH = 5.0, 10 mg in 10 mL): 97.69%
Stability, 20th day (%) ([2]; pH = 5.0, 10 mg in 10 mL): 97.38%
Stability, 30th day (%) ([2]; pH = 5.0, 10 mg in 10 mL): 97.48%
Stability, 0 day (%) ([2]; pH = 6.0, 10 mg in 10 mL): 98.16%
Stability, 8th day (%) ([2]; pH = 6.0, 10 mg in 10 mL): 97.64%
Stability, 20th day (%) ([2]; pH = 6.0, 10 mg in 10 mL): 97.39%
Stability, 30th day (%) ([2]; pH = 6.0, 10 mg in 10 mL): 97.48%
Stability, 0 day (%) ([2]; pH = 7.0, 10 mg in 10 mL): 98.26%
Stability, 8th day (%) ([2]; pH = 7.0, 10 mg in 10 mL): 97.85%
Stability, 20th day (%) ([2]; pH = 7.0, 10 mg in 10 mL): 97.57%
Stability, 30th day (%) ([2]; pH = 7.0, 10 mg in 10 mL): 97.58%
Stability, 0 day (%) ([2]; pH = 8.0, 10 mg in 10 mL): 98.14%
Stability, 8th day (%) ([2]; pH = 8.0, 10 mg in 10 mL): 97.64%
Stability, 20th day (%) ([2]; pH = 8.0, 10 mg in 10 mL): 97.33%
Stability, 30th day (%) ([2]; pH = 8.0, 10 mg in 10 mL): 97.49%
Formation of new blood vessels in the cornea (slit-lamp photographs, FIG. 2), comparison of groups [1]: can delay the rapid formation of new blood vessels significantly better than the SZY1905-P32 eye drops-administered group
Number of New Zealand rabbit eyes with appearance of fluorescein-stained spots [1, 4]: 12
Number of New Zealand rabbit eyes with conjunctival congestion [1, 4]: 2
Number of New Zealand rabbit eyes with corneal edema [1, 4]: 9
Number of New Zealand rabbit eyes with neovascularization [1, 4]: 0
Number of New Zealand rabbit eyes with appearance of fluorescein-stained spots [1, 5]: 7
Number of New Zealand rabbit eyes with conjunctival congestion [1, 5]: 0
Number of New Zealand rabbit eyes with corneal edema [1, 5]: 3
Number of New Zealand rabbit eyes with neovascularization [1, 5]: 3
Number of New Zealand rabbit eyes with appearance of fluorescein-stained spots [1, 6]: 6
Number of New Zealand rabbit eyes with conjunctival congestion [1, 6]: 0
Number of New Zealand rabbit eyes with corneal edema [1, 6]: 3
Number of New Zealand rabbit eyes with neovascularization [1, 6]: 3
solubility ([3]; Purified water, 25° C. (room temperature)): >10000 µg/mL
solubility ([3]; pH 5.0, 25° C. (room temperature)): >1000 µg/mL
solubility ([3]; pH 6.0, 25° C. (room temperature)): >1000 µg/mL
solubility ([3]; pH 7.0, 25° C. (room temperature)): >1000 µg/mL
solubility ([3]; pH 8.0, 25° C. (room temperature)): >1000 µg/mL

C[C@H]1[C@H](OCCC[N+](C)(C)C)O[C@@H]2O[C@@]3(C)CC[C@H]4[C@H](C)CC[C@@H]1C24OO3 [SZY1905-P30, artemisinin quaternary ammonium propyl ether iodate]
Stability, 0 day (%) ([2]; Purified water, 10 mg in 10 mL): 97.09%
Stability, 8th day (%) ([2]; Purified water, 10 mg in 10 mL): 96.91%
Stability, 20th day (%) ([2]; Purified water, 10 mg in 10 mL): 97.04%
Stability, 30th day (%) ([2]; Purified water, 10 mg in 10 mL): 97.28%
Stability, 0 day (%) ([2]; pH = 5.0, 10 mg in 10 mL): 97.23%
Stability, 8th day (%) ([2]; pH = 5.0, 10 mg in 10 mL): 96.90%
Stability, 20th day (%) ([2]; pH = 5.0, 10 mg in 10 mL): 97.01%
Stability, 30th day (%) ([2]; pH = 5.0, 10 mg in 10 mL): 97.25%
Stability, 0 day (%) ([2]; pH = 6.0, 10 mg in 10 mL): 97.24%
Stability, 8th day (%) ([2]; pH = 6.0, 10 mg in 10 mL): 96.95%
Stability, 20th day (%) ([2]; pH = 6.0, 10 mg in 10 mL): 96.81%
Stability, 30th day (%) ([2]; pH = 6.0, 10 mg in 10 mL): 97.23%
Stability, 0 day (%) ([2]; pH = 7.0, 10 mg in 10 mL): 97.34%
Stability, 8th day (%) ([2]; pH = 7.0, 10 mg in 10 mL): 97.09%
Stability, 20th day (%) ([2]; pH = 7.0, 10 mg in 10 mL): 96.97%
Stability, 30th day (%) ([2]; pH = 7.0, 10 mg in 10 mL): 97.26%
Stability, 0 day (%) ([2]; pH = 8.0, 10 mg in 10 mL): 97.22%
Stability, 8th day (%) ([2]; pH = 8.0, 10 mg in 10 mL): 97.13%
Stability, 20th day (%) ([2]; pH = 8.0, 10 mg in 10 mL): 96.98%
Stability, 30th day (%) ([2]; pH = 8.0, 10 mg in 10 mL): 97.13%
Formation of new blood vessels in the cornea (slit-lamp photographs, FIG. 2), comparison of groups [1]: can delay the rapid formation of new blood vessels significantly better than the SZY1905-P32 eye drops-administered group
Number of New Zealand rabbit eyes with appearance of fluorescein-stained spots [1, 4]: 12
Number of New Zealand rabbit eyes with conjunctival congestion [1, 4]: 2
Number of New Zealand rabbit eyes with corneal edema [1, 4]: 8
Number of New Zealand rabbit eyes with neovascularization [1, 4]: 0
Number of New Zealand rabbit eyes with appearance of fluorescein-stained spots [1, 5]: 6
Number of New Zealand rabbit eyes with conjunctival congestion [1, 5]: 0
Number of New Zealand rabbit eyes with corneal edema [1, 5]: 2
Number of New Zealand rabbit eyes with neovascularization [1, 5]: 3
Number of New Zealand rabbit eyes with appearance of fluorescein-stained spots [1, 6]: 5
Number of New Zealand rabbit eyes with conjunctival congestion [1, 6]: 0
Number of New Zealand rabbit eyes with corneal edema [1, 6]: 1
Number of New Zealand rabbit eyes with neovascularization [1, 6]: 4
solubility ([3]; aqueous solution adjusted with phosphoric acid and NaOH, 25 °C, pH 5, aqueous buffer): > 1000 µg/mL
solubility ([3]; aqueous solution adjusted with phosphoric acid and NaOH, 25 °C, pH 6, aqueous buffer): > 1000 µg/mL
solubility ([3]; aqueous solution adjusted with phosphoric acid and NaOH, 25 °C, pH 7, aqueous buffer): > 1000 µg/mL
solubility ([3]; aqueous solution adjusted with phosphoric acid and NaOH, 25 °C, pH 8, aqueous buffer): > 1000 µg/mL
solubility ([3]; purified water, 25 °C, water): > 10000 µg/mL
